Experiments:
[1] = system: LY1 and LY7 (GCB) cell lines; assay: DLBCL cell viability, resazurin assay, GCB subtype; type: cell-based; details: LY1 and LY7, 4 days, refreshed daily; DI 125-250 μM
[2] = system: IκBζ target genes (Defb4, S100a7a, Lcn2, S100a9); assay: IκBζ target gene expression in IL-17A-stimulated mouse keratinocytes (qPCR); type: cell-based; details: DI 12 h, IL-17A 4 h
Protocol: RNA from cultured cells was isolated using a Total RNA I kit (OMEGA). RNA from mouse ear skin was extracted using RNAeasy mini kit (Qiagen) after tissue disruption with sterile zirconium beads on a MagNA Lyser (Roche). Isolated RNA was reverse transcribed using AffinityScript Multi-Temp reverse transcriptase (Agilent Technologies) according to the manufacturer's protocol. Reactions were performed in 96-well plates using a SYBR Green PCR Master mix (Thermo Fisher Scientific) using a LightCycler® 96 or LightCycler® 480 (Roche Diagnostics). All assays were performed at least in duplicates, and reaction mixtures in 20 μL volumes (96-plate) or 10 μL volumes (384-plate) were processed under the following cycling conditions: initial 10 min denaturation at 95° C., followed by 40 cycles at 95° C. for 10 s, 60° C. for 1 min. Threshold cycle (CT) values for each sample were determined by automated threshold analysis. Expression levels of all mRNAs were normalized to reference gene Actb in BMDMs or to Rpl19 in mouse keratinocytes and tissue samples; to ACTB in human blood monocytes or RPLP0 in human keratinocytes. The relative increase in the expression level of a gene was normalized to the level of expression in unstimulated control cells in each experiment. IκBζ-dependent genes selected for analysis in macrophages were previously published. […]

[3] = system: BMDMs; assay: Nascent protein synthesis (Click chemistry labeling) and proteomic profiling in BMDMs; type: cell-based, mouse; details: DI, LPS 1 h, metabolic labeling, proteomics
Protocol: BMDMs were plated 2×10^6 cells per well in 6-well plates. Cells were either (1) treated with DI (250 μM) for 12 h and then stimulated with LPS (100 ng/mL) for 1 h, or (2) only stimulated with LPS (100 ng/mL) for 1 h, or (3) only treated with DI (250 μM) for 12 h, or (4) neither treated with DI nor LPS. Cells were then washed 3× with PBS and lysed in 200 μL of urea buffer (8 M urea, 75 mM NaCl, 50 mM Tris pH 8.0, 1 mM EDTA). Lysates were then cleared by centrifugation at 20,000 g and protein concentrations were determined by BCA assay (Pierce). 15 μg of total protein per sample were processed further. Disulfide bonds were reduced with 5 mM dithiothreitol and cysteines were subsequently alkylated with 10 mM iodoacetamide. Samples were diluted 1:4 with 50 mM Tris/HCl (pH 8.0) and sequencing grade modified trypsin (Promega) was added in an enzyme-to-substrate ratio of 1:50. After 16 h of digestion, samples were acidified with 1% formic acid (final concentration). […]
BMDMs were grown in 12-well plate, […] per well and treated with DI (250 μM) for 10 h. […] Total protein concentration was determined using RC/DC™ Protein Assay (Biorad). […] Proteins were separated on 4%-20% polyacrylamide gradient gels (BioRad) and biotinylated proteins were detected by western blot with streptavidin-HRP conjugate (1:1000, #554066, BD Pharmingen). […]

## C=C(CC(=O)OC)C(=O)OC [DI, dimethyl itaconate]
[1]
  growth / toxicity, GCB DLBCL: not GCB cells
[2]
  expression of IκBζ target genes: downregulated
[3]
  global protein synthesis: did not affect protein synthesis globally

Source: patent US20200375929A1, “METHODS AND COMPOSITIONS FOR THE TREATMENT OF DISEASES ASSOCIATED WITH CANCER, INFLAMMATION, OR IMMUNE RESPONSE” (Washington University, priority 2017, published 2020)
